The experiment deals with SARS-CoV-2 M^pro (Severe acute respiratory syndrome coronavirus 2, UniProt P0DTD1). The experiment can be described thus: biochemical. Also on record: inhibition: dose or concentration left out as unconfirmed.
The mark [1] stands for this setting: initial screen, 100 μM of drug, Table S4.
Where [2] appears, read: initial screen, Table S4, read-out: Normalized Percent FRET inhibition.
[3] abbreviates: initial screen, 100 μM of drug, Table S4, 100 µM.

Take Eptifibatide acetate: the “Normalized Percent FRET inhibition” value under setting [1] came to 2.056%. As usually defined, the inhibition is the drop in the measured response relative to a control, in per cent. In the case of `C[C@H]1O[C@H](O[C@H]2[C@H](O)[C@@H](O)[C@@H](O[C@H]3[C@H](O)[C@@H](O)C(O)O[C@@H]3CO)O[C@@H]2CO)[C@H](O)[C@@H](O)[C@@H]1N[C@H]1C=C(CO)[C@@H](O)[C@H](O)[C@H]1O` (stereo partly drawn) [Acarbose], the inhibition under setting [2] was -3.44%. As to `OCCOCCN1CCN(C(c2ccccc2)c2ccc(Cl)cc2)CC1` (stereo not drawn) [Hydroxyzine Pamoate], the inhibition under setting [2] is 12.9%. Consider `CO[C@H]1C[C@H](O[C@H]2CC[C@]3(C)[C@H]4CC[C@]5(C)[C@@H](C6=CC(=O)OC6)CC[C@]5(O)[C@@H]4CC[C@]3(O)C2)O[C@H](C)[C@H]1O[C@@H]1O[C@H](CO)[C@@H](O)[C@H](O)[C@H]1O` [Periplocin], for which the “Normalized Percent FRET inhibition” value under setting [1] was -1.536%. As to `COc1ccc(CN2CCN(C(c3ccc(F)cc3)c3ccc(F)cc3)CC2)c(OC)c1OC.Cl.Cl` [Lomerizine hydrochloride], under setting [1], the “Normalized Percent FRET inhibition” value was -0.2765%. On to `CCCc1nc(C(C)(C)O)c(C(=O)OCc2oc(=O)oc2C)n1Cc1ccc(-c2ccccc2-c2nnn[nH]2)cc1` [Olmesartan Medoxomil], for which, under setting [2], the inhibition turned out to be 2.83%. `CC1(C)O[C@@H]2C[C@H]3[C@@H]4C[C@H](F)C5=CC(=O)C=C[C@]5(C)[C@@]4(F)[C@@H](O)C[C@]3(C)[C@]2(C(=O)CO)O1` [Fluocinolone acetonide]: the inhibition under setting [2] is 0.0249%. `CC1=NN(c2ccc(C)c(C)c2)C(=O)/C1=N\Nc1cccc(-c2cccc(C(=O)O)c2)c1O` [Eltrombopag Olamine]: the inhibition under setting [2] turned out to be 23.7%. Still for that read-out and setting: in the case of `C#C[C@]1(O)CC[C@H]2[C@@H]3CCc4cc(O)ccc4[C@H]3CC[C@@]21C` [Ethynyl estradiol] it was -3.17%. As for Hyaluronic acid, the “Normalized Percent FRET inhibition” value under setting [1] is recorded as -2.844%.

Turning to `C=CC(=O)Nc1cccc(Oc2nc(Nc3ccc(N4CCN(C)CC4)cc3)nc3ccsc23)c1` [Olmutinib], the inhibition under setting [2] was -0.795%.

Regarding `Cc1cccc(C)c1OCC(=O)N[C@@H](Cc1ccccc1)[C@@H](O)C[C@H](Cc1ccccc1)NC(=O)[C@H](C(C)C)N1CCCNC1=O` [Lopinavir], under setting [2], the inhibition came out at 18.2%.

For the compound `CC(C)=CCC[C@](C)(O[C@@H]1O[C@H](CO)[C@@H](O)[C@H](O)[C@H]1O)[C@H]1CC[C@]2(C)[C@@H]1[C@H](O)C[C@@H]1[C@@]3(C)CC[C@H](O)C(C)(C)[C@@H]3[C@@H](O[C@@H]3O[C@H](CO)[C@@H](O)[C@H](O)[C@H]3O)C[C@]12C` [Ginsenoside Rg1], the inhibition under setting [2] came out at 4.19%.

For the compound `C[C@H]1O[C@@H](O[C@H]2[C@@H](O)C[C@H](O[C@H]3[C@@H](O)C[C@H](O[C@H]4CC[C@@]5(C)[C@H](CC[C@@H]6[C@@H]5CC[C@]5(C)[C@@H](C7=CC(=O)OC7)CC[C@]65O)C4)O[C@@H]3C)O[C@@H]2C)C[C@H](O)[C@@H]1O` [Digitoxin], the inhibition under setting [2] stood at 0.197%. For `C[C@]12C=CC(=O)N[C@@H]1CC[C@@H]1[C@@H]2CC[C@]2(C)[C@@H](C(=O)Nc3cc(C(F)(F)F)ccc3C(F)(F)F)CC[C@@H]12` [Dutasteride], the inhibition under setting [2] is -2.38%. `CS(=O)(=O)CCNCc1ccc(-c2ccc3ncnc(Nc4ccc(OCc5cccc(F)c5)c(Cl)c4)c3c2)o1` [Lapatinib Ditosylate]: the inhibition under setting [2] was -1.57%.

For `CC(C)(C)NC(=O)[C@@H]1C[C@@H]2CCCC[C@@H]2CN1C[C@@H](O)[C@H](Cc1ccccc1)NC(=O)[C@H](CC(N)=O)NC(=O)c1ccc2ccccc2n1` [Saquinavir], under setting [2], the inhibition was -1.34%. Consider `CC1=C(C(=O)OCCN(Cc2ccccc2)c2ccccc2)C(c2cccc([N+](=O)[O-])c2)C(P2(=O)OCC(C)(C)CO2)=C(C)N1` (stereo not drawn) [Efonidipine], for which the inhibition under setting [2] is -1.16%. Regarding `OC[C@H]1O[C@H](O[C@H]2[C@H](O)[C@@H](O)[C@@H](O[C@H]3[C@H](O)[C@@H](O)[C@@H](O[C@H]4[C@H](O)[C@@H](O)C(O)O[C@@H]4CO)O[C@@H]3CO)O[C@@H]2CO)[C@H](O)[C@@H](O)[C@@H]1O` (stereo partly drawn) [MALTOTETRAOSE], the “Normalized Percent FRET inhibition” value under setting [1] is -0.9055%.

For `Nc1nc(=O)c2c([nH]1)NC[C@H](CNc1ccc(C(=O)N[C@@H](CCC(=O)[O-])C(=O)[O-])cc1)N2C=O.[Ca+2]` [Calcium Levofolinate], the “Normalized Percent FRET inhibition” value under setting [1] stood at 13%. For `COC(=O)N[C@H](C(=O)N[C@@H](Cc1ccccc1)[C@@H](O)CN(Cc1ccc(-c2ccccn2)cc1)NC(=O)[C@@H](NC(=O)OC)C(C)(C)C)C(C)(C)C` [Atazanavir], under setting [2], the inhibition is -1.97%. As to Ivermectin, the “Normalized Percent FRET inhibition” value under setting [1] is on record as -0.9158%. With `CN1c2c(nc(N)[nH]c2=O)NCC1CNc1ccc(C(=O)N[C@@H](CCC(=O)O)C(=O)O)cc1` (stereo partly drawn) [Calcium N5-methyltetrahydrofolate], the inhibition at 100 µM (read-out: Normalized Percent FRET inhibition) worked out at 3.74%. For `CC(C)OC(=O)[C@H](C)N[P@](=O)(OC[C@H]1O[C@@H](n2ccc(=O)[nH]c2=O)[C@](C)(F)[C@@H]1O)Oc1ccccc1` [Sofosbuvir], the inhibition under setting [2] is -0.4%. For `C[C@@H]1O[C@@H](O[C@H]2C[C@@H](O)[C@]3(CO)[C@H]4[C@H](O)C[C@]5(C)[C@@H](C6=CC(=O)OC6)CC[C@]5(O)[C@@H]4CC[C@]3(O)C2)[C@H](O)[C@H](O)[C@H]1O` [Ouabain octahydrate], the inhibition under setting [2] is -0.948%. Still for that read-out and setting: in the case of `COc1ccc2c(O[C@@H]3C[C@H]4C(=O)N[C@]5(C(=O)NS(=O)(=O)C6CC6)C[C@H]5/C=C\CCCCN(C)C(=O)[C@@H]4C3)cc(-c3nc(C(C)C)cs3)nc2c1C` [Simeprevir] it was 72.9%; in that of `COc1ccc2nc3cc(Cl)ccc3c(Nc3cc(CN4CCCC4)c(O)c(CN4CCCC4)c3)c2n1` [Pyronaridine], -8.33%. Turning to `Cc1nc2n(c(=O)c1CCN1CCC(c3noc4cc(F)ccc34)CC1)CCCC2` [Risperidal], the “Normalized Percent FRET inhibition” value (100 µM) is listed as -1.672. For the compound `CCN1CCN(C(=O)N[C@@H](C(=O)N[C@@H]2C(=O)N3C(C(=O)O)=C(CSc4nnnn4C)CS[C@H]23)c2ccc(O)cc2)C(=O)C1=O` [Cefoperazone], the “Normalized Percent FRET inhibition” value under setting [3] is recorded as -0.3067%.

Consider `CCOc1nc2cccc(C(=O)O)c2n1Cc1ccc(-c2ccccc2-c2nnn[nH]2)cc1` [Candesartan], for which the “effect in the FRET-based activity assay (in words)” value is on record as “no effect”. As to `Cc1cc(/C=C/C#N)cc(C)c1Nc1ccnc(Nc2ccc(C#N)cc2)n1` [Rilpivirine], the inhibition under setting [2] stood at 5.87%. As to `CC(C)C(=O)OCC(=O)[C@@]12O[C@H](C3CCCCC3)O[C@@H]1C[C@H]1[C@@H]3CCC4=CC(=O)C=C[C@]4(C)[C@H]3[C@@H](O)C[C@@]12C` [Ciclesonide], the inhibition under setting [2] is -0.393%.

For the compound `CCN1CCN(C(=O)N[C@@H](C(=O)N[C@@H]2C(=O)N3C(C(=O)O)=C(CSc4nnnn4C)CS[C@H]23)c2ccc(O)cc2)C(=O)C1=O` [Cefoperazone sodium], the “Normalized Percent FRET inhibition” value under setting [3] is 14.81%. In the case of `CO[C@@]1(NC(=O)C2SC(=C(C(N)=O)C(=O)O)S2)C(=O)N2C(C(=O)O)=C(CSc3nnnn3C)CS[C@@H]21` (stereo partly drawn) [Cefotetan], the inhibition under setting [2] was determined as 2.14%. Take Maraviroc: the “Normalized Percent FRET inhibition” value under setting [1] was -2.69%.

As for `Cc1ccc(Nc2nccc(N(C)c3ccc4c(C)n(C)nc4c3)n2)cc1S(N)(=O)=O` [Pazopanib], the inhibition under setting [2] is -0.955%. Take `CC(C)CN(C[C@@H](O)[C@H](Cc1ccccc1)NC(=O)O[C@H]1CO[C@H]2OCC[C@H]21)S(=O)(=O)c1ccc(N)cc1.CCO` [Darunavir Ethanolate]: under setting [1], the “Normalized Percent FRET inhibition” value is reported as -1.838%. As for `C=CC[N+]1([C@H]2C[C@H]3[C@@H]4CC[C@H]5C[C@H](O)[C@@H](N6CCOCC6)C[C@]5(C)[C@H]4CC[C@]3(C)[C@H]2OC(C)=O)CCCC1` [Rocuronium bromide], the inhibition under setting [2] was 11.3%. Regarding `Cc1cc(C#N)cc(C)c1Oc1nc(Nc2ccc(C#N)cc2)nc(N)c1Br` [Etravirine], under setting [2], the inhibition is -0.895%. Turning to `COc1ccc(-c2cc(=O)c3c(O)cc(O[C@@H]4O[C@H](CO[C@@H]5O[C@@H](C)[C@H](O)[C@@H](O)[C@H]5O)[C@@H](O)[C@H](O)[C@H]4O)cc3o2)cc1O` [Diosmin], the inhibition under setting [2] was -0.378%. On to `CC(=O)Nc1cccc(-n2c(=O)n(C3CC3)c(=O)c3c(Nc4ccc(I)cc4F)n(C)c(=O)c(C)c32)c1.C[S+](C)[O-]` [Trametinib DMSO solvate], for which the “Normalized Percent FRET inhibition” value under setting [1] was found to be 1.516%.

As to `Cc1nc(C)c2c(n1)N(Cc1ccc(-c3ccccc3-c3nnn[nH]3)cc1)C(=O)CC2` [Tasosartan], the inhibition under setting [2] is -1.96%. Still for that read-out and setting: the figure for `O=C1[C@H](CC[C@H](O)c2ccc(F)cc2)[C@@H](c2ccc(O)cc2)N1c1ccc(F)cc1` [Ezetimibe] is -1.34%. Consider `CO/N=C(\C(=O)N[C@@H]1C(=O)N2C(C(=O)O)=C(CSc3nnnn3C)CS[C@H]12)c1csc(N)n1.CO/N=C(\C(=O)N[C@@H]1C(=O)N2C(C(=O)O)=C(CSc3nnnn3C)CS[C@H]12)c1csc(N)n1.Cl` [Cefmenoxime hydrochloride], for which the “Normalized Percent FRET inhibition” value under setting [1] was -1.304%. Turning to `CC#CCn1c(N2CCC[C@@H](N)C2)nc2c1c(=O)n(Cc1nc(C)c3ccccc3n1)c(=O)n2C` [Linagliptin], the inhibition under setting [2] stood at 8.28%. Still for that read-out and setting: in the case of `C[C@@H](O[C@H]1OCCN(Cc2n[nH]c(=O)[nH]2)[C@H]1c1ccc(F)cc1)c1cc(C(F)(F)F)cc(C(F)(F)F)c1` [Aprepitant] it was 3.37%. For `CC1CNc2c(cccc2S(=O)(=O)N[C@@H](CCCNC(=N)N)C(=O)N2CC[C@@H](C)C[C@@H]2C(=O)O)C1` (stereo partly drawn) [Argatroban], the inhibition under setting [2] worked out at 13.5%. In the case of `CC1(C)CCC(CN2CCN(c3ccc(C(=O)NS(=O)(=O)c4ccc(NCC5CCOCC5)c([N+](=O)[O-])c4)c(Oc4cnc5[nH]ccc5c4)c3)CC2)=C(c2ccc(Cl)cc2)C1` [ABT199], under setting [2], the inhibition stood at 6.27%. On to `COc1cc(N2CCC(N3CCN(C)CC3)CC2)ccc1Nc1ncc(Cl)c(Nc2ccccc2P(C)(C)=O)n1` [Brigatinib], for which the inhibition under setting [2] came to 5.97%. As for `CC1(C)S[C@@H]2[C@H](NC(=O)[C@H](NC(=O)N3CCNC3=O)c3ccccc3)C(=O)N2[C@H]1C(=O)O` [Azlocillin sodium], under setting [2], the inhibition is -0.915%.

Turning to `CCC(=O)O[C@@H](O[P@](=O)(CCCCc1ccccc1)CC(=O)N1C[C@H](C2CCCCC2)C[C@H]1C(=O)[O-])C(C)C.[Na+]` [Fosinopril sodium], under setting [1], the “Normalized Percent FRET inhibition” value amounted to 3.315%.

For the origin of these results see article PMC8315004, “Discovery of Small-Molecule Inhibitors of SARS-CoV-2 Proteins Using a Computational and Experimental Pipeline” (Frontiers in Molecular Biosciences, 2021).
